biological target: T1, Δ^5 -lipoxygenase from rat basophilic leukemia (RBL-1) cells (Rattus norvegicus, UniProt P12527); experiment: In vitro test for Δ^5 -lipoxygenase inhibitors (5-LO), RBL-1 cell enzyme, 5-HETE radioimmunoassay; type: biochemical; conditions: RBL-1 5-LO; 10 min preincubation; 8.25 μM arachidonic acid, 10 min at 37° C.; 5-HETE formation; read-out: 5-LO IC-50
T1 construct: endogenous in cells; host or cells: RBL-1 rat basophilic leukemia cells (ATCC CRL 1378); 113,000×g supernatant (cytosolic fraction)
T1 sequence (P12527 1-673): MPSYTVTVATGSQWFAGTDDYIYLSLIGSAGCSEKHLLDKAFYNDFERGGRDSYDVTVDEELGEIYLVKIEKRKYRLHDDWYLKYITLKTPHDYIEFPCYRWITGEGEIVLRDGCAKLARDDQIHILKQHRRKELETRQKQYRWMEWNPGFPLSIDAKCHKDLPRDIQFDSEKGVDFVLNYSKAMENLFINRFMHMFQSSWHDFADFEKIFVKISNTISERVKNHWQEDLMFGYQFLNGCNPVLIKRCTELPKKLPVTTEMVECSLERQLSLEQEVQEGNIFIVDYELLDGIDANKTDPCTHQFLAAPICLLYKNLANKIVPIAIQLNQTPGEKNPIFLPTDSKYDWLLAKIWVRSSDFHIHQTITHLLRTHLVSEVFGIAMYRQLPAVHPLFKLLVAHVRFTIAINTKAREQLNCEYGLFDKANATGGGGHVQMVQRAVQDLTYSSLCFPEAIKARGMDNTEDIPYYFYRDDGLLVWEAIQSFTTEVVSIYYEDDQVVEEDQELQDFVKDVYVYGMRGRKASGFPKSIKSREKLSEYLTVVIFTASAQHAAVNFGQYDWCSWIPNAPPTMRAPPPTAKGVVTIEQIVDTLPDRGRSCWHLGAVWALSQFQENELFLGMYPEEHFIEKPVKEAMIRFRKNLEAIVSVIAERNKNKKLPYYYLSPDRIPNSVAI
Description: IN VITRO TEST FOR Δ^5 -LIPOXYGENASE INHIBITORS Compounds of formula I of the invention were tested for their effect on Δ^5 -lipoxygenase from rat basophilic leukemia (RBL-1) cells. Materials. RBL-1 cells (CRL 1378) were obtained from the American TYpe Culture Collection, Rockville, MD. DMEM and glutamine were purchased from Flow Labs, McLean, VA. FBS (Gibco, Grand Island, NY) was heat-inactivated for 1 hour at 56° C. Reagents for protein determinations were obtained from Biorad, Rockville Center, NY. Arachidonic acid (approx. 99%), ATP (disodium slat), BHT, dextran (clinical grade), tetrasodium EDTA, gelatin, gentamycin sulfate solution, reduced glutathione, 1 M HEPES buffer, indomethacin, NaCl, reduced NADpH, Trizma 7.2, and Trizma 8.5 were purchased from Sigma Chemical, St. Louis, MO. CaCl2 dihydrate, Norit A charcoal, and citric acid monohydrate were obtained from Fisher Scientific, Pittsburgh, PA. […] MA. A synthetic 5-HETE standard was supplied by Dr. M. Rosenberger, Dept. of Medicinal Chemistry, Hoffmann-La Roche, Nutley, NJ; [see Corey, E.J., and Hashimoto, S. (1981 ) Tet. Letters, 22, 299-302 for method of preparation]. Ecoscint liquid sointillation fluid was purchased from National Diagnostics, Sommerville, NJ. Isolation of 5-lipoxygenase. […] Approximately 7-9 days after thawing, RBL-1 cells growing in log phase were seeded at a density of 7500 viable cells/ml in a closed 89-liter spinner flask. The cells were stirred constantly for 3-4 days at 37° C. until they reached a density greater than 500,000/ml but less than 800,00/ml. RBL-1 cells were harvested by centrifugation at 4° C. at 1500×g for 10 minutes and were washed 3 times with ice cold 0.05 M tris-HCl, pH 7.2, tetrasodium EDTA (buffer 1). The cells were washed last in 0.05 M Tris-HCl containing 14 μM indomethacin, 1 mM glutathione, 1.5 mM NaCl, and 1 mM tetrasodium EDTA (buffer 2), resuspended at a density of 5×108'/ml (approximately 10 ml) and disrupted manually at 4° C. using a 40 ml Dounce (type A pestle) homogenizer. After 5 minutes of homogenization. 95% cell lysis was confirmed by phase contrast microscopy. The broken cells were diluted 1:2 with buffer 2 and centrifuged at 12,380×g for 10 minutes at 4° C. to pellet cellular debris and granules. The 12,380×g supernatant was centrifuged at 113,000×g for 60 minutes to pellet microsomes. The high-speed supernatant (5.9±0.48 mg/ml protein) was frozen immediately in 1 ml aliquots using a dry ice/acetone bath. The isolated cytosolic fraction was stored in liquid N2 for up to 8 weeks without loss of 5-LO enzyme activity. Lipoxygenase Assay. Compounds Were dissolved at 25 mM concentration in DMSO, then diluted to final concentrations using 95% ethanol. For a typical enzyme assay, the partially purified 5-LO preparation was preincubated with drug or vehicle for 10 minutes at 30° C. The assay tubes were then transferred at a 37° C. water bath where they received arachidonic acid (8.25 μM final concentration) to initiate 5-LO activity. In addition to enzyme and substrate, each reaction tube contained: 12.5 μmoles of Tris-HCl (pH 7.2), 25 nmoles glutathione, 0.35 nmoles indomethacin and 1.25 μmoles of CaCl2 and ATP to yield a total of volume of 250 μl. The enzyme reaction was terminated after 10 minutes by the addition of 75μl […] citric acid to yield pH 3.5. The samples were immediately cooled on ice and neutralized by dilution with 0.05 M Tris-HCl, pH 8.5, which contained 25 mg/1 BHT. A boiled cytosol control was placed at the end of each assay to measure non-enzymatic oxidation of arachidonic acid. The mean specific activity of the 5-LO enzyme preparation was approximately 66.16±14.39 pmol 5-HETE/min/mg protein. Radioimmunoassay for 5-HETE. Under the assay conditions described, the 5-LO catalyzed the conversion of arachidonic acid to 5-HPETE which, as a consequence o peroxidase activity, was reduced to 5-HETE. A specific radioimmunoassay was employed to quantitate the amount (pmoles) of 5-HETE formed during the enzyme reaction. […]

Compound | IC50
Cc1c(C)c2c(c(C)c1O)CCC(C)(C#Cc1ccccc1)O2 (racemic) [Example 1, rac-3,4-Dihydro-2,5,7,8-tetramethyl-2-(phenylethynyl)-2H-1-benzopyran-6-ol] | 40 nM
Cc1c(C)c2c(c(C)c1O)CCC(C)(C#Cc1cccs1)O2 (racemic) [Example 4, rac-3,4-Dihydro-2,5,7,8-tetramethyl-2-[(2-thienyl)ethynyl]-2H-1-benzopyran-6-ol] | 23 nM
Cc1c(C)c2c(c(C)c1O)CCC(C)(C#Cc1cccnc1)O2 (racemic) [Example 14, rac-3,4-Dihydro-2,5,7,8-tetramethyl-2-[(3-pyridinyl)ethynyl]-2H-1-benzopyran-6-ol] | 40 nM
Cc1c(C)c2c(c(C)c1O)CCC(C)(C#Cc1ccccn1)O2 (racemic) [Example 15, rac-3,4-Dihydro-2,5,7,8-tetramethyl1-2-[(2-pyridinyl)ethynyl]-2H-1-benzopyran-6-ol] | 16 nM
Cc1c(C)c2c(c(C)c1O)CCC(C)(C#Cc1csc3ccccc13)O2 (racemic) [Example 16, rac-[2-(Benzo[b]thiophen-3-yl)ethynyl]-3.4-dihydro-2,5,7,8-tetramethyl-2H-1-benzopyran-2H-1-benzopyran-6-ol] | 1.6 nM
COc1ccc(C#CC2(C)CCc3c(C)c(O)c(C)c(C)c3O2)cc1OC(C)=O (racemic) [Example 20, rac-2-[(3-Acetyloxy-4-methoxyphenyl)ethynyl]-3.4-dihydro-2,5,7,8-tetramethyl-2H-1-benzopyran-6-ol] | 24 nM
COc1cccc(C#CC2(C)CCc3c(C)c(O)c(C)c(C)c3O2)c1 (racemic) [Example 22, rac-3,4-Dihydro-2-(3-methoxyphenyl)ethynyl)-2,5,7,8-tetra-methyl-2H-1-benzopyran-6-ol] | 170 nM
COC(=O)c1cc(C#CC2(C)CCc3c(C)c(O)c(C)c(C)c3O2)ccc1O (racemic) [Example 23, rac-5-(3,4-Dihydro-6-hydroxy-2,5,7,8-tetramethyl-2H-1-benzopyran-2-yl)ethynyl]-2-hydroxybenzoic acid methyl ester] | 160 nM
Cc1c(C)c2c(c(C)c1O)CCC(C)(C#Cc1ccc(-c3cccnc3)cc1)O2 (racemic) [Example 24, rac-3,4-Dihydro-2,5,7,8-tetramethyl-2-{[4-(3-pyridinyl)-phenyl]ethynyl}-2H-1-benzopyran-6-ol] | 160 nM
Cc1c(C)c2c(c(C)c1O)CCC(C)(C#Cc1ccc(-c3ccccn3)s1)O2 (racemic) [Example 26, rac-3,4-Dihydro-2,5,7,8-tetramethyl-2-{[5-(2-pyridinyl)-2-thienyl]ethynyl}-2H-1-benzopyran-6-ol] | 160 nM
COc1cc(C=O)cc(C#CC2(C)CCc3c(C)c(O)c(C)c(C)c3O2)c1O (racemic) [Example 28, rac-3-[(3,4-Dihydro-6-hydroxy-2,5,7,8-tetramethyl-2H-1-benzopyran-2-yl)ethynyl]-4-hydroxy-5-methoxybenzaldehyde] | 130 nM
COc1cc(CO)cc(C#CC2(C)CCc3c(C)c(O)c(C)c(C)c3O2)c1O (racemic) [Example 29, rac-3-[(3,4-Dihydro-6-hydroxy-2,5,7,8-tetramethyl-2H-1-benzopyran-2-yl)ethynyl]-4-hydroxy-5-methoxybenzenemethanol] | 130 nM
COc1cc(C=NO)cc(C#CC2(C)CCc3c(C)c(O)c(C)c(C)c3O2)c1O (racemic) [Example 30, rac-3-[(3,4-Dihydro-6-hydroxy-2,5,7,8-tetramethyl-2H-1-benzopyran-2yl)ethynyl]-4-hydroxy-5-methoxybenzaldehydeoxime] | 160 nM
CCCCc1ccc(C#CC2(C)CCc3c(C)c(O)c(C)c(C)c3O2)s1 (racemic) [Example 31, rac-2-[(5-Butyl-2-thienyl)ethynyl]-3,4-dihydro-2,5,7,8-tetramethyl-2H-1-benzopyran-6-ol] | 1000 nM
Cc1c(C)c2c(c(C)c1O)CCC(C)(C#Cc1cnc3ccccc3c1)O2 (racemic) [Example 33, rac-3,4-Dihydro-2,5,7,8-tetramethyl-2-(3-quinolinylethynyl)-2H-1-benzopyran-6-ol] | 160 nM
Cc1c(C)c2c(c(C)c1O)CCC(C)(C#Cc1cncc3ccccc13)O2 (racemic) [Example 34, rac-3,4-Dihydro-2-[(4-isoquinolinyl)ethynyl]-2,5,7,8-tetramethyl-2H-1-benzopyran-6-ol] | 1000 nM
Cc1c(C)c2c(c(C)c1O)CCC(C)(C#Cc1cccc(C(F)(F)F)c1)O2 (racemic) [Example 35, rac-2-{[3-(Trifluoromethyl)phenyl]ethynyl-3,4-dihydro-2,5,7,8-tetramethyl-2H-1-benzopyran-6-ol] | 190 nM
Cc1c(C)c2c(c(C)c1O)CCC(C)(C#Cc1ccc(F)c(F)c1)O2 (racemic) [Example 36, rac-2-[(3,4-Difluorophenyl)ethynyl]-3,4-dihydro-2,5,7,8-tetramethyl-2H-1-benzopyran-6-ol] | 120 nM
Cc1c(C)c2c(c(C)c1O)CCC(C)(C#Cc1cccc3ccccc13)O2 (racemic) [Example 39, rac-3,4-Dihydro-2,5,7,8-tetramethyl-2-(1-naphthyl)ethynyl-2H-1-benzopyran-6-ol] | 500 nM
Cc1c(C)c2c(c(C)c1O)CCC(C)(C#Cc1ccccc1N)O2 (racemic) [Example 40, rac-2-[(2-Aminophenyl)ethynyl]-3,4-dihydro-2,5,7,8-tetramethyl-2H-1-benzopyran-6-ol] | 20 nM
CC(=O)Oc1cc(C#CC2(C)CCc3c(C)c(O)c(C)c(C)c3O2)ccc1OCc1ccccc1 (racemic) [Example 41, rac-2-{[3-Acetyloxy-4-(phenylmethoxy)phenyl]ethynyl}-3,4-dihydro-2,5,7,8-tetramethyl-2H-1-benzopyran-6-ol] | 32 nM
Cc1c(C)c2c(c(C)c1O)CCC(C)(C#Cc1ccc(OCc3ccccc3)c(O)c1)O2 (racemic) [Example 43, rac-3,4-Dihydro-2-{[3-hydroxy-4-(phenylmethoxY)phenyl]-ethynyl}-2,5,7,8-tetramethyl-2H-1-benzopyran-6-ol] | 24 nM
